Calls of active or inactive are those of the source.
Assays:
cells [1] = format: functional, cell-based
cells [2] = format: functional, cell-based; remark: listed apart in the source
INS1 = experiment: INS-1E survival protection against cytokine death – cell-based, luminescence, retest, dose response (AID 449756); format: functional; conditions: Rattus norvegicus;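 also: cell death triggered by IL-1 beta plus TNF-alpha plus IFN-gamma mixture; protective hits raise ATP signal compared with cytokine alone wells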
Cytochrome P450 2C19 = Cytochrome P450 2C19 (Homo sapiens, UniProt P33261); experiment: Cytochrome panel assay with activity outcomes. Panel member name: p450-cyp2c19 Compounds with AC50 equal or less than 10 uM are considered active; format: functional; conditions: read-out: AC50
Sequence of Cytochrome P450 2C19 (P33261 whole entry): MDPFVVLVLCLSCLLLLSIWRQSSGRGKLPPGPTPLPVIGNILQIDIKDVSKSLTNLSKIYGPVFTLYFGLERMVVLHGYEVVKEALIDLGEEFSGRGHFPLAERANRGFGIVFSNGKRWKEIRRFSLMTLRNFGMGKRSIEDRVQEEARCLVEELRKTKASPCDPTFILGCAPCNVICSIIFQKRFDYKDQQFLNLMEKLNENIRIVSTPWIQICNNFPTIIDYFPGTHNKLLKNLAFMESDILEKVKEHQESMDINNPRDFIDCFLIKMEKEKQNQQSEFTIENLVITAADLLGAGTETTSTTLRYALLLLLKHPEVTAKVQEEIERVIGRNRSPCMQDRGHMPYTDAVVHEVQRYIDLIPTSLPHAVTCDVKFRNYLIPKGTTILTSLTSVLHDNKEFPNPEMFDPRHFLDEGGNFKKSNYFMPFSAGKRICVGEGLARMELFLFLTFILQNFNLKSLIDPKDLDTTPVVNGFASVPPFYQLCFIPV

Cytochrome P450 2C9 = Cytochrome P450 2C9 (Homo sapiens, UniProt P11712)
Sequence of Cytochrome P450 2C9 (P11712 whole entry): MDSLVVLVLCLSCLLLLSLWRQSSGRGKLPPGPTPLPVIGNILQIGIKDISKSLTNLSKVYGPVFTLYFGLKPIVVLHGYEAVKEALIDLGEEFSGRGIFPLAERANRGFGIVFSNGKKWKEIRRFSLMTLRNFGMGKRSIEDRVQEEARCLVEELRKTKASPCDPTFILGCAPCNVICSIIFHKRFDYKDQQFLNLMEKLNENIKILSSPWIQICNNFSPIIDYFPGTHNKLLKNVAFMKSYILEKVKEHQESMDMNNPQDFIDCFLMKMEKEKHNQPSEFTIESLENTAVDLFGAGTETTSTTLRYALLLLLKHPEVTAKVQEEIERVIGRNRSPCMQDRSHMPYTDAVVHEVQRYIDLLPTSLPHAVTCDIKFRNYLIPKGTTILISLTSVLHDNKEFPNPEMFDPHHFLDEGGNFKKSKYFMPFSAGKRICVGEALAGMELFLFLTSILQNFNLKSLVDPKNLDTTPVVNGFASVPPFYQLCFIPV

Protein RecA = biological target: T1, Protein RecA (Mycobacterium tuberculosis, UniProt P9WHJ3); experiment: Fluorescence Cell-Free Homogeneous Dose Retest to Identify Inhibitors of RecA-Intein Splicing Activity. [Related pubchem assays (depositor defined):AID2097, AID2223, AID489010, AID492950]; format: functional
T1 sequence (P9WHJ3 whole entry): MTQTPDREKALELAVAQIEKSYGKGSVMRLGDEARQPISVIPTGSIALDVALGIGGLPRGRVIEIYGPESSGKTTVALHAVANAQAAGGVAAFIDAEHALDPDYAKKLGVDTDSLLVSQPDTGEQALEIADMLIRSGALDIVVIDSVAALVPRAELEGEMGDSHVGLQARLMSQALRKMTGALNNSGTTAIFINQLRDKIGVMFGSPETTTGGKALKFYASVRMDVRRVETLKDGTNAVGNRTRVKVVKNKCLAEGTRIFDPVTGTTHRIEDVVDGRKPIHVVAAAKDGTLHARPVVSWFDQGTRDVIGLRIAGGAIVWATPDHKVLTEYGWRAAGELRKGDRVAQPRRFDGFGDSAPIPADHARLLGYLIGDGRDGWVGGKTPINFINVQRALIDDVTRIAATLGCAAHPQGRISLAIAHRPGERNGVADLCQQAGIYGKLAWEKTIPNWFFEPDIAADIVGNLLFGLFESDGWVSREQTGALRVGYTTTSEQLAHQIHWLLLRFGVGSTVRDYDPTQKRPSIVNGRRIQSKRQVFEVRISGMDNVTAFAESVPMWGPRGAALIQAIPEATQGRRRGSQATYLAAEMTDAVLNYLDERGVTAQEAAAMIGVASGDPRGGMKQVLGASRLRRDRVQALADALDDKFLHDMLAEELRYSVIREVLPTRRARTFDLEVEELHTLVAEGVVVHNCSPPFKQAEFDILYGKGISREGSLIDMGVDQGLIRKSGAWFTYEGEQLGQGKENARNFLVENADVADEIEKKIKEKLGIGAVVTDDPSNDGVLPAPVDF

[3] = biological target: T2, Replicative DNA helicase DnaB (Mycobacterium tuberculosis, UniProt P9WMR3); experiment: DnaB intein splicing inhibitors, dose response, biochemical, cell-free fluorescence (AID 449749); format: functional
T2 sequence (P9WMR3 whole entry): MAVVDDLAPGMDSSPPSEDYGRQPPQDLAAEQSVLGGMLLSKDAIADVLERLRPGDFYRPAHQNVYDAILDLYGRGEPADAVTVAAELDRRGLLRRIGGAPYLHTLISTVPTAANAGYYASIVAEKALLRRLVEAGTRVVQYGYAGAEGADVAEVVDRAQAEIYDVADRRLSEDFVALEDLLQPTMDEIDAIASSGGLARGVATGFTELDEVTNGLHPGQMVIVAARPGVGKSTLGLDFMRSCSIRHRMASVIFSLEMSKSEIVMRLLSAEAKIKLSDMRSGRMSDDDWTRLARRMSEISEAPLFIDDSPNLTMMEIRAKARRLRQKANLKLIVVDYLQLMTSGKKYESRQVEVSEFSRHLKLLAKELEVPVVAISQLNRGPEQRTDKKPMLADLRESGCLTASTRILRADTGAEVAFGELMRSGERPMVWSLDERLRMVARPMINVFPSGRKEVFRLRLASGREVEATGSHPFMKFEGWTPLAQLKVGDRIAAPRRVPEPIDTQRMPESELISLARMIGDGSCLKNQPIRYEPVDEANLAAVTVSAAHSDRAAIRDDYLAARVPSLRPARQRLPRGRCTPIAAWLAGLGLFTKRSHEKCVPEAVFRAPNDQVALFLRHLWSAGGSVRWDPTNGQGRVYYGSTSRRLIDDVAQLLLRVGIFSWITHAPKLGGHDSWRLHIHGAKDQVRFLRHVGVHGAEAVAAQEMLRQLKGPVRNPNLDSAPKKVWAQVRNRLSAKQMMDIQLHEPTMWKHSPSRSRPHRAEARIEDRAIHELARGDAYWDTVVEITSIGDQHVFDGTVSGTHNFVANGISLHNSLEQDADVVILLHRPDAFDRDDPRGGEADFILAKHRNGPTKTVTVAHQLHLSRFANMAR

[4] = NIH3T3 cell viability loss – ATP luminescence, mouse fibroblasts, counter-screen, dose response (AID 2010); format: functional, cell-based;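 also: cells exposed to compound for about 90 hours before reading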
[5] = Trypanosoma cruzi growth suppression in host cells – NIH3T3 host cells, beta-gal luminescence, confirmation (AID 2044); format: functional, cell-based;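 also: intracellular parasites grown in NIH/3T3 mouse fibroblasts as host cells; luminescent beta-galactosidase reporter signal from transgenic T. cruzi replicating inside host cells; inhibitors lower the luminescence signal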
Cytochrome P450 1A2 = biological target: T3, Cytochrome P450 1A2 (Homo sapiens, UniProt P05177);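 also: PubChem cytochrome P450 panel assay, CYP1A2 panel member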
T3 sequence (P05177 whole entry): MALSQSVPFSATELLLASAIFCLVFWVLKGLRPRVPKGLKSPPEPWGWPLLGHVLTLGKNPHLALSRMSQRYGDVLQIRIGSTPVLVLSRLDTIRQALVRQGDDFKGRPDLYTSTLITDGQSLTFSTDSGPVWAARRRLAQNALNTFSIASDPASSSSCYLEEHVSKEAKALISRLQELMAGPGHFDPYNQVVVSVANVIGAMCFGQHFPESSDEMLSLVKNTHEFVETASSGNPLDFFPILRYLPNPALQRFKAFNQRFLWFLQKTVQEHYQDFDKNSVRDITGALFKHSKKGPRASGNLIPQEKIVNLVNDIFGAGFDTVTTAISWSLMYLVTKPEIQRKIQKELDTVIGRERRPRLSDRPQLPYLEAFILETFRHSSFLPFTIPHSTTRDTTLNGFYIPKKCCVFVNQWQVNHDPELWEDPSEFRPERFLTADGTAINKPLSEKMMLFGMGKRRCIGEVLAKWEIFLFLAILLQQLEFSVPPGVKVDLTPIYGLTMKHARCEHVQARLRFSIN

[6] = Luminescence Cell-Based Dose Retest to Confirm Inhibitors of Cancer Stem Cells. [Related pubchem assays (depositor defined):AID2717, AID2721]; format: functional; conditions: Homo sapiens
Streptokinase A = biological target: T4, Streptokinase A (Streptococcus pyogenes serotype M1, UniProt P10520); experiment: viability-normalized secreted streptokinase activity reduction – plasminogen activation absorbance, OD405, dose response (AID 1914); format: functional, Streptococcus pyogenes M1 GAS;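 also: secreted streptokinase activity via plasminogen activation per viability signal from cell pellet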
T4 sequence (P10520 whole entry): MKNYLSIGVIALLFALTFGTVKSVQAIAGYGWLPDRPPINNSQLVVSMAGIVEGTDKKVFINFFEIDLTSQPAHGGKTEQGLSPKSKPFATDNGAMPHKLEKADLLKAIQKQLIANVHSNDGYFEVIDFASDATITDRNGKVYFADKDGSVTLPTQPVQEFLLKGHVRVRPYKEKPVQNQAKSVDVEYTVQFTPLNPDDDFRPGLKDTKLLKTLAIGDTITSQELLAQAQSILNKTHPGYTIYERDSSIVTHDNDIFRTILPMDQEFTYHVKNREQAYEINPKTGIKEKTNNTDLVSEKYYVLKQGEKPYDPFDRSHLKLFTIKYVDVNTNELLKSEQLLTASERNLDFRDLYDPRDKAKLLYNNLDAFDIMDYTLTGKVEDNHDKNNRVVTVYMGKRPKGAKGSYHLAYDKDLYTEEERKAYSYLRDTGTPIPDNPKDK

Streptococcus = experiment: GAS UMAA2166 growth inhibition – luminescence, BacTiterGlo, counter-screen for streptokinase expression inhibitor project, dose response (AID 1915); format: functional, organism-based;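 also: potency for reduction of bacterial viability or growth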
[7] = test system: Streptococcus sp. 'group A'; experiment: Streptococcus pyogenes SK(-)GAS viability under kanamycin – luminescence, BacTiterGlo, confirmation, counter-screen for streptokinase expression inhibitor project, dose response (AID 1900); format: functional, organism-based
[8] = viability of uninfected HEp-2 cells – cell-based, HTS, cytotoxicity control for RSV inhibitor project, dose response (AID 2410); format: functional; conditions: human respiratory syncytial virus

**Q.** Which EC50 (cells [1]) does the source give for `CCCCOC(=O)c1ccc(NC(=S)NC(=O)c2c(Br)c(C)nn2C)cc1` here?
**A.** Its EC50 is 44.9 µM (active).

**Q.** And the EC50 (cells [2])?
**A.** Its EC50 is > 350 µM (not active).

**Q.** What does the source list for `CCOC(=O)c1ccc(S(=O)(=O)NNC(=O)COc2ccccc2C)cc1`?
**A.** EC50 (cells [1]): > 350 µM (not active); EC50 (cells [2]): > 350 µM (not active)

**Q.** Which AC50 (INS1) does the source give for `CNc1nc(N)c([N+](=O)[O-])c(Nc2cccc(F)c2)n1` here?
**A.** The AC50 was > 260 µM (inactive).

**Q.** With `CC(=O)c1ccc(N(C(=O)c2csnn2)C(C(=O)NC(C)(C)C)c2cccs2)cc1` (stereo not given) as the compound, how does the EC50 (cells [1]) read?
**A.** The EC50 was > 350 µM (not active).

**Q.** What about the EC50 (cells [2]) of the same compound?
**A.** Its EC50 is > 350 µM (not active).

**Q.** For `O=C(CN1C(=O)NC2(CCCCCC2)C1=O)N1CCN(S(=O)(=O)c2ccc(Cl)cc2)CC1`, which AC50 (Cytochrome P450 2C19) is on record?
**A.** The AC50 was 20 µM (inconclusive).

**Q.** What about the AC50 (Cytochrome P450 2C9) of the same compound?
**A.** Its AC50 is 17.8 µM (inconclusive).

**Q.** Which AC50 (INS1) does the source give for `Cc1ccc(C)c(S(=O)(=O)Nc2ccc(O)c3ccccc23)c1` here?
**A.** Its AC50 is 7.62 µM (active).

**Q.** What about the EC50 (Protein RecA) of the same compound?
**A.** Its EC50 is 74.5 nM (active).

**Q.** And the AC50 [3]?
**A.** The AC50 was 384 nM (active).

**Q.** For `O=C(Cn1c(-c2ccccc2)c[n+]2ccsc12)c1ccc([N+](=O)[O-])cc1`, which AC50 (INS1) is on record?
**A.** Its AC50 is 11.6 µM (active).

**Q.** And the EC50 [4]?
**A.** Its EC50 is > 60 µM (not active).

**Q.** What about the EC50 [5] of the same compound?
**A.** The EC50 was 549 nM (active).

**Q.** With `COC(=O)Nc1nnc(Cc2ccc(OC)cc2)s1` as the compound, how does the EC50 (cells [1]) read?
**A.** Its EC50 is > 350 µM (not active).

**Q.** And the EC50 (cells [2])?
**A.** Its EC50 is > 350 µM (not active).

**Q.** For `COc1ccc(-n2c(C)cc(C=O)c2C)cc1Cl`, which AC50 (Cytochrome P450 2C19) is on record?
**A.** Its AC50 is 3.98 µM (inconclusive).

**Q.** What about the AC50 (Cytochrome P450 1A2) of the same compound?
**A.** The AC50 was 14.1 µM (inconclusive).

**Q.** What about the AC50 (Cytochrome P450 2C9) of the same compound?
**A.** Its AC50 is 17.8 µM (inconclusive).

**Q.** Which AC50 (INS1) does the source give for `CCC(C)Sc1cccc(-c2nc3ccc(C)cn3c2NCc2ccccc2)c1` (stereo not given) here?
**A.** The AC50 was 7.39 µM (active).

**Q.** And the AC50 [6]?
**A.** Its AC50 is 2.75 µM (active).

**Q.** And the EC50 (Streptokinase A)?
**A.** Its EC50 is 4.26 µM (active).

**Q.** And the EC50 (Streptococcus)?
**A.** The EC50 was 10.3 µM (active).

**Q.** What about the EC50 [7] of the same compound?
**A.** Its EC50 is 3.25 µM (active).

**Q.** With `O=c1c(-c2cccs2)nc2cnc(Oc3ccccc3)nc2n1C1CC1` as the compound, how does the AC50 (Cytochrome P450 2C19) read?
**A.** The AC50 was 1.58 µM (inconclusive).

**Q.** With `CCNS(=O)(=O)c1ccc(NC(=O)c2cncc(Br)c2)cc1` as the compound, how does the EC50 (cells [1]) read?
**A.** Its EC50 is > 350 µM (not active).

**Q.** What about the EC50 (cells [2]) of the same compound?
**A.** Its EC50 is > 350 µM (not active).

**Q.** For `Cc1ccc(/C=N/NC(=O)Cc2ccc(Cl)cc2)c(O)c1`, which AC50 (INS1) is on record?
**A.** The AC50 was 3.76 µM (active).

**Q.** What about the EC50 (Streptococcus) of the same compound?
**A.** The EC50 was 3.08 µM (active).

**Q.** What about the EC50 [7] of the same compound?
**A.** The EC50 was 1.1 µM (active).

**Q.** For `C/C(=N\NC(=O)C(=O)Nc1cccc(Cl)c1)c1ccncc1`, which AC50 (INS1) is on record?
**A.** The AC50 was 4.88 µM (active).

**Q.** What does the source list for `Cc1cc(SCC(=O)N/N=C/c2ccccc2C(=O)O)c(C)cc1Br`?
**A.** EC50 (cells [1]): > 350 µM (not active); EC50 (cells [2]): > 350 µM (not active)

**Q.** Which CC50 [8] does the source give for `O=C(c1ccccc1)N1CCCC(c2ccc(Cl)cc2)=N1` here?
**A.** The CC50 was 42.4 µM (active).

From ChEMBL document CHEMBL1201862, “PubChem BioAssay data set” (2004)
